Results taken from US20170119020A1, “METHOD OF FEEDING AN ANIMAL” (CARGILL, INCORPORATED, priority 2014, published 2017).

Columns and labels:
Ross 308 breeders = assay: Broiler breeder performance, weeks 30 through 39 of age (Example 4); type: in vivo, chicken; settings: breeder diet
Excerpt: All breeders received the same standard control diet during the pre-experimental period (19-30 weeks of age). […] In total there were 24 floor pens with 30 breeder females and 3 males (after allocation). The experimental period lasted 9 weeks; the breeders received a lay phase diet during the entire experimental period. Feed and water were restricted. Feed amount depended on body weight development. Water was provided for two hours a day, crops were checked regularly to ensure the correct amount of water was provided. [table]

sows (PIC) = assay: Sow performance (Example 10); type: in vivo, pig; settings: for Culled sows, n: reproductive failure: 13 sows; for Wean-to-remate interval / Weaning-to-estrus interval: Subsequent performance; for Farrowing rate (%), subsequent performance: next cycle
Method: The trial was conducted at a farm in Poland. In general the housing and management conditions on the chosen workplace were considered representative for the geographical region. The breeding, gestation, and farrowing facilities of the farm were fully enclosed buildings with rooms that were ventilated and heated to maintain a minimum comfort zone temperature for the sows. Testing was performed on sows (primiparous and multiparous) of the same type of crossing (PIC). The trial comprised 52 sows in a system of continuous farrowing. Each group was consist of 13 animals. The trial ran from day 1 of pregnancy to remating in the next cycle. There were two dietary compositions: LP 0-90 d, LK-90 d of gestation-weaning. Feed fed throughout the study was manufactured in the feed mill of the farm. The feed produced was complete feeds according to the standard feeding management procedures on the participating farm. Feed consistency was mash. […] Each group was fed with complete diets for pregnant sows (0-90 d) and for lactation sows (90 d of gestation-weaning) with different inclusion of vitamin E and tested product (see TABLE 43A) and lactation diets (see TABLE 43B) The performance following criteria were monitored during the trial: (i) Sows response criteria (actual parity, farrowing rate, culled sows—number and reasons, wean-to-mating interval, farrowing rate in the next cycle); (ii) litter response criteria (number of piglets, total, alive, stillborn, mummies; weight of piglets and litters; survival). The following biochemical (blood) criteria were monitored during the trial for the sows (mating, farrowing and weaning), piglets 21st day: (i) glutathione peroxidase (GPx) activity; (ii) superoxide dismutase (SOD) activity; (iii) total antioxidant status (TAS); (iv) vitamin E content; (v) vitamin A content.

[1] = Group 2: vitamin E 50/75 mg/kg diet
[2] = Group 3: vitamin E 100/150 mg/kg diet

SMILES: Cc1c(C)c2c(c(C)c1O)CCC(C)(CCCC(C)CCCC(C)CCCC(C)C)O2 (racemic) [Vitamin E, DL-α-tocopherol]
- Average daily gain 30-34 wk (Ross 308 breeders; vitamin E equivalence 80 ppm): 5.36 g
- Average daily gain 30-39 wk (Ross 308 breeders; vitamin E equivalence 80 ppm): 5.79 g
- Average daily gain 34-39 wk (Ross 308 breeders; vitamin E equivalence 80 ppm): 5.96 g
- Bodyweight 30 wks (Ross 308 breeders; vitamin E equivalence 80 ppm): 3.51 kg
- Bodyweight 39 wks (Ross 308 breeders; vitamin E equivalence 80 ppm): 3.88 kg
- Egg mass 30-34 wks (Ross 308 breeders; vitamin E equivalence 80 ppm): 52.4 g/h/d
- Egg mass 30-39 wks (Ross 308 breeders; vitamin E equivalence 80 ppm): 51.6 g/h/d
- Egg mass 34-39 wks (Ross 308 breeders; vitamin E equivalence 80 ppm): 50.9 g/h/d
- Egg weight 30-34 wks (Ross 308 breeders; vitamin E equivalence 80 ppm): 60.1 g
- Egg weight 30-39 wks (Ross 308 breeders; vitamin E equivalence 80 ppm): 61.2 g
- Egg weight 34-39 wks (Ross 308 breeders; vitamin E equivalence 80 ppm): 62.4 g
- First Class Eggs 30-34 wks (Ross 308 breeders; vitamin E equivalence 80 ppm): 80.2%
- First Class Eggs 30-39 wks (Ross 308 breeders; vitamin E equivalence 80 ppm): 77.0%
- First Class Eggs 34-39 wks (Ross 308 breeders; vitamin E equivalence 80 ppm): 73.8%
- Laying in percentage 30-34 wks (Ross 308 breeders; vitamin E equivalence 80 ppm): 87.1%
- Laying in percentage 30-39 wks (Ross 308 breeders; vitamin E equivalence 80 ppm): 84.3%
- Laying in percentage 34-39 wks (Ross 308 breeders; vitamin E equivalence 80 ppm): 81.5%
- Second Choice Eggs: Broken Eggs 30-34 wks (Ross 308 breeders; vitamin E equivalence 80 ppm): 1.2%
- Second Choice Eggs: Broken Eggs 30-39 wks (Ross 308 breeders; vitamin E equivalence 80 ppm): 1.2%
- Second Choice Eggs: Broken Eggs 34-39 wks (Ross 308 breeders; vitamin E equivalence 80 ppm): 1.2%
- Second Choice Eggs: Dirty Eggs 30-34 wks (Ross 308 breeders; vitamin E equivalence 80 ppm): 1.4%
- Second Choice Eggs: Dirty Eggs 30-39 wks (Ross 308 breeders; vitamin E equivalence 80 ppm): 1.7%
- Second Choice Eggs: Dirty Eggs 34-39 wks (Ross 308 breeders; vitamin E equivalence 80 ppm): 1.9%
- Second Choice Eggs: Double yolk Eggs 30-34 wks (Ross 308 breeders; vitamin E equivalence 80 ppm): 1.3%
- Second Choice Eggs: Double yolk Eggs 30-39 wks (Ross 308 breeders; vitamin E equivalence 80 ppm): 0.9%
- Second Choice Eggs: Double yolk Eggs 34-39 wks (Ross 308 breeders; vitamin E equivalence 80 ppm): 0.4%
- Second Choice Eggs: Floor eggs, 30-34 wks (Ross 308 breeders; vitamin E equivalence 80 ppm): 2.3%
- Second Choice Eggs: Floor eggs, 30-39 wks (Ross 308 breeders; vitamin E equivalence 80 ppm): 2.8%
- Second Choice Eggs: Floor eggs, 34-39 wks (Ross 308 breeders; vitamin E equivalence 80 ppm): 3.4%
- Second Choice Eggs: Remainder 30-34 wks (Ross 308 breeders; vitamin E equivalence 80 ppm): 0.5%
- Second Choice Eggs: Remainder 30-39 wks (Ross 308 breeders; vitamin E equivalence 80 ppm): 0.6%
- Second Choice Eggs: Remainder 34-39 wks (Ross 308 breeders; vitamin E equivalence 80 ppm): 0.8%
- Second Choice Eggs: Shell less Eggs 30-34 wks (Ross 308 breeders; vitamin E equivalence 80 ppm): 0.2%
- Second Choice Eggs: Shell less Eggs 30-39 wks (Ross 308 breeders; vitamin E equivalence 80 ppm): 0.1%
- Second Choice Eggs: Shell less Eggs 34-39 wks (Ross 308 breeders; vitamin E equivalence 80 ppm): 0.0%
- Average daily gain 30-34 wk (Ross 308 breeders; vitamin E equivalence 160 ppm): 5.65 g
- Average daily gain 30-39 wk (Ross 308 breeders; vitamin E equivalence 160 ppm): 5.60 g
- Average daily gain 34-39 wk (Ross 308 breeders; vitamin E equivalence 160 ppm): 5.40 g
- Bodyweight 30 wks (Ross 308 breeders; vitamin E equivalence 160 ppm): 3.48 kg
- Bodyweight 39 wks (Ross 308 breeders; vitamin E equivalence 160 ppm): 3.83 kg
- Egg mass 30-34 wks (Ross 308 breeders; vitamin E equivalence 160 ppm): 52.5 g/h/d
- Egg mass 30-39 wks (Ross 308 breeders; vitamin E equivalence 160 ppm): 52.4 g/h/d
- Egg mass 34-39 wks (Ross 308 breeders; vitamin E equivalence 160 ppm): 52.2 g/h/d
- Egg weight 30-34 wks (Ross 308 breeders; vitamin E equivalence 160 ppm): 60.3 g
- Egg weight 30-39 wks (Ross 308 breeders; vitamin E equivalence 160 ppm): 61.6 g
- Egg weight 34-39 wks (Ross 308 breeders; vitamin E equivalence 160 ppm): 62.9 g
- First Class Eggs 30-34 wks (Ross 308 breeders; vitamin E equivalence 160 ppm): 78.6%
- First Class Eggs 30-39 wks (Ross 308 breeders; vitamin E equivalence 160 ppm): 76.5%
- First Class Eggs 34-39 wks (Ross 308 breeders; vitamin E equivalence 160 ppm): 74.4%
- Laying in percentage 30-34 wks (Ross 308 breeders; vitamin E equivalence 160 ppm): 87.0%
- Laying in percentage 30-39 wks (Ross 308 breeders; vitamin E equivalence 160 ppm): 85.0%
- Laying in percentage 34-39 wks (Ross 308 breeders; vitamin E equivalence 160 ppm): 83.0%
- Second Choice Eggs: Broken Eggs 30-34 wks (Ross 308 breeders; vitamin E equivalence 160 ppm): 1.2%
- Second Choice Eggs: Broken Eggs 30-39 wks (Ross 308 breeders; vitamin E equivalence 160 ppm): 1.3%
- Second Choice Eggs: Broken Eggs 34-39 wks (Ross 308 breeders; vitamin E equivalence 160 ppm): 1.5%
- Second Choice Eggs: Dirty Eggs 30-34 wks (Ross 308 breeders; vitamin E equivalence 160 ppm): 1.8%
- Second Choice Eggs: Dirty Eggs 30-39 wks (Ross 308 breeders; vitamin E equivalence 160 ppm): 1.8%
- Second Choice Eggs: Dirty Eggs 34-39 wks (Ross 308 breeders; vitamin E equivalence 160 ppm): 1.7%
- Second Choice Eggs: Double yolk Eggs 30-34 wks (Ross 308 breeders; vitamin E equivalence 160 ppm): 1.1%
- Second Choice Eggs: Double yolk Eggs 30-39 wks (Ross 308 breeders; vitamin E equivalence 160 ppm): 0.8%
- Second Choice Eggs: Double yolk Eggs 34-39 wks (Ross 308 breeders; vitamin E equivalence 160 ppm): 0.5%
- Second Choice Eggs: Floor eggs, 30-34 wks (Ross 308 breeders; vitamin E equivalence 160 ppm): 3.3%
- Second Choice Eggs: Floor eggs, 30-39 wks (Ross 308 breeders; vitamin E equivalence 160 ppm): 3.7%
- Second Choice Eggs: Floor eggs, 34-39 wks (Ross 308 breeders; vitamin E equivalence 160 ppm): 4.1%
- Second Choice Eggs: Remainder 30-34 wks (Ross 308 breeders; vitamin E equivalence 160 ppm): 0.8%
- Second Choice Eggs: Remainder 30-39 wks (Ross 308 breeders; vitamin E equivalence 160 ppm): 0.7%
- Second Choice Eggs: Remainder 34-39 wks (Ross 308 breeders; vitamin E equivalence 160 ppm): 0.6%
- Second Choice Eggs: Shell less Eggs 30-34 wks (Ross 308 breeders; vitamin E equivalence 160 ppm): 0.3%
- Second Choice Eggs: Shell less Eggs 30-39 wks (Ross 308 breeders; vitamin E equivalence 160 ppm): 0.2%
- Second Choice Eggs: Shell less Eggs 34-39 wks (Ross 308 breeders; vitamin E equivalence 160 ppm): 0.2%
- Farrowing rate (%) (sows (PIC); [1]): 84.62%
- Culled sows, n: reproductive failure (sows (PIC); [1]): 2
- Farrowing rate (%) (sows (PIC); [2]): 84.62%
- Culled sows, n: reproductive failure (sows (PIC); [2]): 2
- Wean-to-remate interval (sows (PIC); [1]): 9.89 days
- Weaning-to-estrus interval (sows (PIC); [1]): 5.09 days
- Wean-to-remate interval (sows (PIC); [2]): 7.70 days
- Weaning-to-estrus interval (sows (PIC); [2]): 5.64 days
- Farrowing rate (%), subsequent performance (sows (PIC); [1]): 80.00%
- Farrowing rate (%), subsequent performance (sows (PIC); [2]): 90.91%
